These results are taken from US10273222B2 (CELGENE QUANTICEL RESEARCH, INC., priority 2013, dated 2019).

Holding throughout (format): biochemical
In one assay the target is Jarid1A (Homo sapiens (Human), UniProt P29375). The assay is described as follows: Jarid1A in vitro enzyme inhibition assay (TR-FRET). The text has this: The enzymatic assay of Jarid1A activity is based upon Time Resolved-Fluorescence Resonance Energy Transfer (TR-FRET) detection.
(In general: In TR-FRET formats the signal depends on donor and acceptor labels being close together.)

The target in the next assay is Jarid1B (Homo sapiens (Human), UniProt Q9UGL1). In words: Jarid1B in vitro enzyme inhibition assay (TR-FRET).
Chain of Jarid1B (Q9UGL1 2-751): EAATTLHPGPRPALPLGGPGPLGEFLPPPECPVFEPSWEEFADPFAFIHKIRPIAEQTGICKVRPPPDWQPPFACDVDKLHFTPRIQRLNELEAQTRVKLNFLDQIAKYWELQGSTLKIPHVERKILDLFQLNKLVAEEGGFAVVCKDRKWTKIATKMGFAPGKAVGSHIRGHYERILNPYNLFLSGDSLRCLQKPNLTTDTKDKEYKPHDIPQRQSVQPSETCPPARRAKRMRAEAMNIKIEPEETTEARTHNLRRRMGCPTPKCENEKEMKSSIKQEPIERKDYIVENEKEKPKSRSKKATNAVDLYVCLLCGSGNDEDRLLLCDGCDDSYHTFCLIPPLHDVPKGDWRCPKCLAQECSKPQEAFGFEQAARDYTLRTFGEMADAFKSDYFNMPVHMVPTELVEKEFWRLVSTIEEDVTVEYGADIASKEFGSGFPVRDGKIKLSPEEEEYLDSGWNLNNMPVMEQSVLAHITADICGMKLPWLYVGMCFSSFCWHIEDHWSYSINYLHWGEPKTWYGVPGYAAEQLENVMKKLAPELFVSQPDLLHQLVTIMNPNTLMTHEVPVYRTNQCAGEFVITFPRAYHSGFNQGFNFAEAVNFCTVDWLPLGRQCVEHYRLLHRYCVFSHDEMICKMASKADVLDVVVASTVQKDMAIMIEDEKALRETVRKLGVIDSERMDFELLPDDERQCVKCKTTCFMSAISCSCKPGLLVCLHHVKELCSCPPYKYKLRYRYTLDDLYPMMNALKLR
A further assay has as its target JMJD2C (Homo sapiens (Human), UniProt Q9H3R0). The assay is described as follows: JMJD2C in vitro enzyme inhibition assay (TR-FRET).
In the next assay the target is JMJD2A (Homo sapiens (Human), UniProt O75164). In words: JMJD2A in vitro enzyme inhibition assay (TR-FRET).
Chain of JMJD2A (O75164 1-350): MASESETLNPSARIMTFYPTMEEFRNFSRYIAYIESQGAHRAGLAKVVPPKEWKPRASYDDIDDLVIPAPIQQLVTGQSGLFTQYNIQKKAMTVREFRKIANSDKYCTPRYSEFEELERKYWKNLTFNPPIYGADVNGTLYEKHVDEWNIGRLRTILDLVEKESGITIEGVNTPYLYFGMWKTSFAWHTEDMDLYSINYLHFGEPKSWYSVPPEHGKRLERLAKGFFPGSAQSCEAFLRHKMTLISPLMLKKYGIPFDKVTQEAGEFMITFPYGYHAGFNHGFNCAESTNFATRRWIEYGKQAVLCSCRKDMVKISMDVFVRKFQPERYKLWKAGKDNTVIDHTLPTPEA
In a further assay the target is FBXL10 (Homo sapiens (Human), UniProt Q8NHM5). The assay is described as follows: FBXL10 in vitro enzyme inhibition assay (AlphaScreen). The method in brief: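 AlphaScreen read-out of H3K36me1 product, detected with anti-H3K36me1 antibody plus streptavidin donor and Protein A acceptor beads (final 10 μg/ml) in 50 mM HEPES pH 7.3, 10 mM NaCl, 0.005% Brij35, 5 mM EDTA, 2 mg/ml BSA. Beads incubated 2 h to overnight at room temperature; IC50 derived from AlphaScreen signal.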
Chain of FBXL10 (Q8NHM5 1-650): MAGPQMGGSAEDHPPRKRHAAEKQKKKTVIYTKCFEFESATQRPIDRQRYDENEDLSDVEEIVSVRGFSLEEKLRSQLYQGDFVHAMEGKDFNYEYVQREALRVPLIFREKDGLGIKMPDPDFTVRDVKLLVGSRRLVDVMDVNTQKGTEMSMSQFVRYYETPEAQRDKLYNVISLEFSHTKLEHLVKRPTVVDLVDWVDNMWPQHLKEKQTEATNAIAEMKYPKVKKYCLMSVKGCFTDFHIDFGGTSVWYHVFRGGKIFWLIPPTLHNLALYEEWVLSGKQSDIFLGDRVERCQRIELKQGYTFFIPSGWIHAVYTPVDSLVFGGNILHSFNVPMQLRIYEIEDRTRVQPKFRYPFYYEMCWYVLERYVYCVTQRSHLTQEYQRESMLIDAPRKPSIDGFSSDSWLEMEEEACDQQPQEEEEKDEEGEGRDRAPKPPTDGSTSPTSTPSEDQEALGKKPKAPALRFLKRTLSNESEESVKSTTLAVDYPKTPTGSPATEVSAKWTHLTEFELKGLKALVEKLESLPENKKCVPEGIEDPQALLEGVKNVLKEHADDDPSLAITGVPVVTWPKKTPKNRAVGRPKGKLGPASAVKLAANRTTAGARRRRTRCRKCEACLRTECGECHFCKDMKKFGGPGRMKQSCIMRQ
A general note: Alpha assays give light when donor and acceptor beads are brought close together.

Chain of Jarid1A (P29375 1-1090): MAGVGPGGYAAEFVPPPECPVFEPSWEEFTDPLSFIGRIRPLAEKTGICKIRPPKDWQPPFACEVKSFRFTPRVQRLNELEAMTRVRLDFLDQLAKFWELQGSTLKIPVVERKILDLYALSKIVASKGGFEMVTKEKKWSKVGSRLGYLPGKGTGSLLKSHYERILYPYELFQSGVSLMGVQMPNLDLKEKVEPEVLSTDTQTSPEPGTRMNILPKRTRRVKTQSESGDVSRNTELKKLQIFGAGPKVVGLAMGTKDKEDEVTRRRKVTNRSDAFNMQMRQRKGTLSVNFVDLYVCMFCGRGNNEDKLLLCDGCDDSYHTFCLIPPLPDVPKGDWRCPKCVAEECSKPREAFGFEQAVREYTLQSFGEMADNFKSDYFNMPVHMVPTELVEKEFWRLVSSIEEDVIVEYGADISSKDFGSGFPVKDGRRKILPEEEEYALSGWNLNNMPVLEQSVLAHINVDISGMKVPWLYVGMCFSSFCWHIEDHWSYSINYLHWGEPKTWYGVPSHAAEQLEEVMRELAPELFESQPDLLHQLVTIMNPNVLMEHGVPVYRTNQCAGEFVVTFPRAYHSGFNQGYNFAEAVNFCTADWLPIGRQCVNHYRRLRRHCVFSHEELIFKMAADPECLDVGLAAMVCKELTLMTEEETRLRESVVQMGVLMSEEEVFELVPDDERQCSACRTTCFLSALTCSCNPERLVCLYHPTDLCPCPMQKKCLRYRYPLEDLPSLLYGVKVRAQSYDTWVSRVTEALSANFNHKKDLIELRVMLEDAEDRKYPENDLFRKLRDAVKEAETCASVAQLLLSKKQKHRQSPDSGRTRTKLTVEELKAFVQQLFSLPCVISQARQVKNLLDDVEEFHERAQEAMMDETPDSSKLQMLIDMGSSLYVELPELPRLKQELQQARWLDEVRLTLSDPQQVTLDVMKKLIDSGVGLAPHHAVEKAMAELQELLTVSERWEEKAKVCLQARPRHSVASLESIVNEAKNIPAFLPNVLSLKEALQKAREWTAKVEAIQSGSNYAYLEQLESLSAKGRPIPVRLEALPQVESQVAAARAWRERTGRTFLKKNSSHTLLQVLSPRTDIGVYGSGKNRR
Chain of JMJD2C (Q9H3R0 2-372): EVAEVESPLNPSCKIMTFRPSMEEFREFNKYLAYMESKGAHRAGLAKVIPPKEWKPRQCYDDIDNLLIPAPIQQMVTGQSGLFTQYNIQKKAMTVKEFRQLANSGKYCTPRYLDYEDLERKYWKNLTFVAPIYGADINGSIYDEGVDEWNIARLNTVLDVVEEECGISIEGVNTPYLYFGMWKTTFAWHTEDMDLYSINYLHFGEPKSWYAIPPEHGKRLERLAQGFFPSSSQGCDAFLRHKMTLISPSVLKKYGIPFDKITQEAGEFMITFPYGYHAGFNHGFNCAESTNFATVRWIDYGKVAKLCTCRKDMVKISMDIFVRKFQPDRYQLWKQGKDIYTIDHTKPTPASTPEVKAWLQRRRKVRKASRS
Procedure for JMJD2A: This assay determines the ability of a test compound to inhibit Jarid1A, Jarid1B, JMJD2C, and JMJD2A demethylase activity. […] Baculovirus expressed JMJD2A (GenBank Accession #NM_014663, AA 1-350) was purchased from BPS Bioscience (Cat#50123).
The ability of test compounds to inhibit the activity of JMJD2A was determined in 384-well plate format under the following reaction conditions: 2 nM JMJD2A, 300 nM H3K9me3-biotin labeled peptide (Anaspec cat #64360), 2 μM alpha-ketoglutaric acid in assay buffer of 50 mM HEPES, pH7.3, 0.005% Brij35, 0.5 mM TCEP, 0.2 mg/ml BSA, 50 μM sodium L-ascorbate, and 2 μM ammonium iron(II) sulfate. Reaction product was determined quantitatively by TR-FRET after the addition of detection reagent Phycolink Streptavidin-allophycocyanin (Prozyme) and Europium-anti-di-methylated histone H3 lysine 9 (H3K9me2) antibody (PerkinElmer) in the presence of 5 mM EDTA in LANCE detection buffer (PerkinElmer) at a final concentration of 50 nM and 1 nM, respectively.
The assay reaction was initiated by the following: 2 μl of the mixture of 900 nM H3K9me3-biotin labeled peptide and 6 μM alpha-ketoglutaric acid with 2 μl of 11-point serial diluted inhibitor in 3% DMSO were added to each well of plate, followed by the addition of 2 μl of 6 nM JMJD2A to initiate the reaction. The reaction mixture was incubated at room temperature for 30 minutes, and terminated by the addition of 6 μl of 5 mM EDTA in LANCE detection buffer containing 100 nM Phycolink Streptavidin-allophycocyanin and 2 nM Europium-anti-H3K9me2 antibody. Plates were read by EnVisionMultilabel Reader in TR-FRET mode (excitation at 320 nm, emission at 615 nm and 665 nm) after 1 hour incubation at room temperature. A ratio was calculated (665/615) for each well and fitted to determine inhibition constant (IC50).
Procedure for JMJD2C: This assay determines the ability of a test compound to inhibit Jarid1A, Jarid1B, JMJD2C, and JMJD2A demethylase activity. […] Baculovirus expressed JMJD2C (GenBank Accession #BC143571, AA 2-372) was purchased from BPS Bioscience (Cat#50105).
The ability of test compounds to inhibit the activity of JMJD2C was determined in 384-well plate format under the following reaction conditions: 0.3 nM JMJD2C, 300 nM H3K9me3-biotin labeled peptide (Anaspec cat #64360), 2 μM alpha-ketoglutaric acid in assay buffer of 50 mM HEPES, pH7.3, 0.005% Brij35, 0.5 mM TCEP, 0.2 mg/ml BSA, 50 μM sodium L-ascorbate, and 2 μM ammonium iron(II) sulfate. Reaction product was determined quantitatively by TR-FRET after the addition of detection reagent Phycolink Streptavidin-allophycocyanin (Prozyme) and Europium-anti-di-methylated histone H3 lysine 9 (H3K9me2) antibody (PerkinElmer) in the presence of 5 mM EDTA in LANCE detection buffer (PerkinElmer) at a final concentration of 50 nM and 1 nM, respectively.
The assay reaction was initiated by the following: 2 μl of the mixture of 900 nM H3K9me3-biotin labeled peptide and 6 μM alpha-ketoglutaric acid with 2 μl of 11-point serial diluted inhibitor in 3% DMSO were added to each well of the plate, followed by the addition of 2 μl of 0.9 nM JMJD2C to initiate the reaction. The reaction mixture was incubated at room temperature for 30 minutes, and terminated by the addition of 6 μl of 5 mM EDTA in LANCE detection buffer containing 100 nM Phycolink Streptavidin-allophycocyanin and 2 nM Europium-anti-H3K9me2 antibody. Plates were read by EnVisionMultilabel Reader in TR-FRET mode (excitation at 320 nm, emission at 615 nm and 665 nm) after 1 hour incubation at room temperature. A ratio was calculated (665/615) for each well and fitted to determine inhibition constant (IC50).
Procedure for Jarid1B: This assay determines the ability of a test compound to inhibit Jarid1A, Jarid1B, JMJD2C, and JMJD2A demethylase activity.
The ability of test compounds to inhibit the activity of Jarid1B was determined in 384-well plate format under the following reaction conditions: 0.8 nM Jarid1B, 300 nM H3K4me3-biotin labeled peptide (Anaspec cat #64357), 2 μM alpha-ketoglutaric acid in assay buffer of 50 mM HEPES, pH7.3, 0.005% Brij35, 0.5 mM TCEP, 0.2 mg/ml BSA, 50 μM sodium L-ascorbate, and 2 μM ammonium iron(II) sulfate. Reaction product was determined quantitatively by TR-FRET after the addition of detection reagent Phycolink Streptavidin-allophycocyanin (Prozyme) and Europium-anti-mono- or di-methylated histone H3 lysine 4 (H3K4me1-2) antibody (PerkinElmer) in the presence of 5 mM EDTA in LANCE detection buffer (PerkinElmer) at a final concentration of 25 nM and 1 nM, respectively.
The assay reaction was initiated by the following: 2 μl of the mixture of 900 nM H3K4me3-biotin labeled peptide and 6 μM alpha-ketoglutaric acid with 2 μl of 11-point serial diluted inhibitor in 3% DMSO was added to each well of the plate, followed by the addition of 2 μl of 2.4 nM Jarid1B to initiate the reaction. The reaction mixture was incubated at room temperature for 30 minutes, and terminated by the addition of 6 μl of 5 mM EDTA in LANCE detection buffer containing 50 nM Phycolink Streptavidin-allophycocyanin and 2 nM Europium-anti-H3K4me1-2 antibody. Plates were read by EnVisionMultilabel Reader in TR-FRET mode (excitation at 320 nm, emission at 615 nm and 665 nm) after 1 hour incubation at room temperature. A ratio was calculated (665/615) for each well and fitted to determine inhibition constant (IC50).

Broadly, the IC50 is the midpoint of a concentration-inhibition curve. A lower IC50 goes with greater potency. As for `O=C(O)c1ccnc(-c2cn(CCN3CCCc4cc(Cl)ccc43)cn2)c1` [Example 89, 2-[1-[2-(6-chloro-3,4-dihydro-2H-quinolin-1-yl)ethyl]imidazol-4-yl]pyridine-4-carboxylic acid], the IC50 is not above 0.1 µM against Jarid1A; not above 0.1 µM against Jarid1B; 0.1 to 1 µM against JMJD2C; 0.1 to 1 µM at JMJD2A; not above 0.1 µM against FBXL10.
In the case of `O=C(O)c1ccnc(-c2cn(CCc3cccc4ccccc34)cn2)c1` [Example 112, 2-[1-(2-naphthalen-1-ylethyl)imidazol-4-yl]pyridine-4-carboxylic acid], the IC50 against Jarid1A was not above 0.1 µM; on Jarid1B, not above 0.1 µM; on JMJD2C, 0.1 to 1 µM; at JMJD2A it was 0.1 to 1 µM; against FBXL10 it was not above 0.1 µM.
For `O=C(O)c1ccnc(-c2cn(CCN3CCCc4cc(F)ccc43)cn2)c1` [Example 90, 2-[1-[2-(6-fluoro-3,4-dihydro-2H-quinolin-1-yl)ethyl]imidazol-4-yl]pyridine-4-carboxylic acid], the half-inhibitory concentration (IC50) against Jarid1A is not above 0.1 µM; against Jarid1B, not above 0.1 µM; on JMJD2C it was 0.1 to 1 µM; at JMJD2A, not above 0.1 µM; against FBXL10 it was not above 0.1 µM.
As to `CN(CCn1cnc(-c2cc(C(=O)O)ccn2)c1)c1ccc(Cl)cc1` [Example 87, 2-[1-[2-(4-chloro-N-methylanilino)ethyl]imidazol-4-yl]pyridine-4-carboxylic acid], the IC50 on Jarid1A is not above 0.1 µM; against Jarid1B it was not above 0.1 µM; against JMJD2C it was 0.1 to 1 µM; at JMJD2A it was 0.1 to 1 µM; against FBXL10, not above 0.1 µM.
As to `O=C(O)c1ccnc(-c2cn(CCN3CCc4cc(F)ccc43)cn2)c1` [Example 91, 2-[1-[2-(5-fluoro-2,3-dihydroindol-1-yl)ethyl]imidazol-4-yl]pyridine-4-carboxylic acid], the IC50 at Jarid1A is not above 0.1 µM; on Jarid1B, not above 0.1 µM; against JMJD2C, 0.1 to 1 µM; on JMJD2A, 0.1 to 1 µM; on FBXL10, 0.1 to 1 µM.
In the case of `O=C(O)c1ccnc(-c2cn(CCN3CCCC3=O)cn2)c1` [Example 60, 2-{1-[2-(2-oxopyrrolidin-1-yl)ethyl]-1H-imidazol-4-yl}pyridine-4-carboxylic acid], the IC50 against Jarid1A was not above 0.1 µM; against Jarid1B, not above 0.1 µM; against JMJD2C, 0.1 to 1 µM; against JMJD2A it was not above 0.1 µM; at FBXL10, not above 0.1 µM.
Take `Cn1cnc(-c2cc(C(=O)O)ccn2)c1-c1ccc(F)cc1OCC1CC1` [Example 120, 2-[5-[2-(cyclopropylmethoxy)-4-fluorophenyl]-1-methylimidazol-4-yl]pyridine-4-carboxylic acid]: the IC50 is 0.1 to 1 µM at Jarid1A; not above 0.1 µM against Jarid1B; 1 to 10 µM at JMJD2C; more than 10 µM on JMJD2A; not above 0.1 µM on FBXL10.
Regarding `Cc1cccc(CN(C)CCn2cnc(-c3cc(C(=O)O)ccn3)c2)c1` [Example 66, 2-[1-[2-[methyl-[(3-methylphenyl)methyl]amino]ethyl]imidazol-4-yl]pyridine-4-carboxylic acid], the concentration for half-maximal inhibition (IC50) on Jarid1A, against Jarid1B, at JMJD2C, against JMJD2A and on FBXL10 was not above 0.1 µM in each case.
Regarding `O=C(O)c1ccnc(-c2cn(CC3CCCc4ccccc43)cn2)c1` (stereo not drawn) [Example 116, 2-[1-(1,2,3,4-tetrahydronaphthalen-1-ylmethyl)imidazol-4-yl]pyridine-4-carboxylic acid], the IC50 against Jarid1A is not above 0.1 µM; against Jarid1B, not above 0.1 µM; on JMJD2C it was 0.1 to 1 µM; on JMJD2A, not above 0.1 µM; against FBXL10, not above 0.1 µM.
Turning to `CC(C)C(c1ccccc1)n1cnc(-c2cc(-c3nn[nH]n3)ccn2)c1` (stereo not drawn) [Example 145, 2-[1-(2-methyl-1-phenylpropyl)imidazol-4-yl]-4-(2H-tetrazol-5-yl)pyridine], the half-maximal inhibitory concentration (IC50) against Jarid1A was 0.1 to 1 µM; against Jarid1B, 0.1 to 1 µM; on JMJD2C it was 1 to 10 µM; against JMJD2A it was more than 10 µM; against FBXL10, not above 0.1 µM.
With `O=C(O)c1ccnc(-c2cn(Cc3cccc(-c4ccccc4)c3)cn2)c1` [Example 111, 2-[1-[(3-phenylphenyl)methyl]imidazol-4-yl]pyridine-4-carboxylic acid], the IC50 was not above 0.1 µM on Jarid1A; not above 0.1 µM against Jarid1B; 1 to 10 µM on JMJD2C; 1 to 10 µM against JMJD2A; not above 0.1 µM at FBXL10.
As to `CN(CCn1cnc(-c2cc(C(=O)O)ccn2)c1)c1ccccc1` [Example 58, 2-(1-{2-[methyl(phenyl)amino]ethyl}-1H-imidazol-4-yl)pyridine-4-carboxylic acid], the IC50 was not above 0.1 µM against Jarid1A; not above 0.1 µM against Jarid1B; 0.1 to 1 µM against JMJD2C; 0.1 to 1 µM on JMJD2A; not above 0.1 µM against FBXL10.
`CN1CCC(Cn2cnc(-c3cc(C(=O)O)ccn3)c2)CC1` [Example 50, 2-{1-[(1-methylpiperidin-4-yl)methyl]-1H-imidazol-4-yl}pyridine-4-carboxylic acid]: the IC50 was not above 0.1 µM on Jarid1A; not above 0.1 µM at Jarid1B; not above 0.1 µM against JMJD2C; not above 0.1 µM against JMJD2A; 1 to 10 µM against FBXL10.
Take `Cc1ccc(CN(C)CCn2cnc(-c3cc(C(=O)O)ccn3)c2)cc1` [Example 67, 2-[1-[2-[methyl-[(4-methylphenyl)methyl]amino]ethyl]imidazol-4-yl]pyridine-4-carboxylic acid]: the half-maximal inhibitory concentration (IC50) against Jarid1A, against Jarid1B, at JMJD2C, on JMJD2A and against FBXL10 was not above 0.1 µM each time.
Take `CN(CCn1cnc(-c2cc(C(=O)O)ccn2)c1)Cc1ccc(C(F)(F)F)cc1` [Example 68, 2-[1-[2-[methyl-[[4-(trifluoromethyl)phenyl]methyl]amino]ethyl]imidazol-4-yl]pyridine-4-carboxylic acid]: the IC50 on Jarid1A, against Jarid1B, against JMJD2C, on JMJD2A and against FBXL10 was not above 0.1 µM throughout.
For the molecule `O=C(O)c1ccnc(-c2cn(C3CCc4ccc(F)cc43)cn2)c1` (stereo not drawn) [Example 109, 2-[1-(6-fluoro-2,3-dihydro-1H-inden-1-yl)imidazol-4-yl]pyridine-4-carboxylic acid], the IC50 was not above 0.1 µM at Jarid1A; not above 0.1 µM at Jarid1B; 1 to 10 µM on JMJD2C; 0.1 to 1 µM against JMJD2A; not above 0.1 µM against FBXL10.
In the case of `CC(C)C(c1ccccc1)n1cnc(-c2cc(C(=O)O)ccn2)c1` (stereo not drawn) [Example 108, 2-[1-(2-methyl-1-phenylpropyl)imidazol-4-yl]pyridine-4-carboxylic acid], the concentration for half-maximal inhibition (IC50) is not above 0.1 µM at Jarid1A; not above 0.1 µM against Jarid1B; 0.1 to 1 µM against JMJD2C; 0.1 to 1 µM on JMJD2A; not above 0.1 µM against FBXL10.
On to `CN(CCn1cnc(-c2cc(C(=O)O)ccn2)c1)Cc1cccc(F)c1` [Example 69, 2-[1-[2-[(3-fluorophenyl)methyl-methylamino]ethyl]imidazol-4-yl]pyridine-4-carboxylic acid], for which the 50% inhibitory concentration (IC50) against Jarid1A, against Jarid1B, against JMJD2C, at JMJD2A and at FBXL10 was not above 0.1 µM each time.
